Among the data in patent publication US20220395500A1, “SMALL MOLECULE ACTIVATORS OF INTERFERON REGULATORY FACTOR 3 AND METHODS OF USE THEREOF” (Neuralexo, Inc., priority 2020, published 2022) are CC50 and EC50 values, retold here.

One series can be described thus: J774-Dual cytotoxicity. It is filed as cell-based, mouse. The conditions noted are these: mouse, J774-Dual cells, read-out: J774 cytotox CC50. Summed up: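 CC50 derived from 8-point concentration series in mouse J774-Dual reporter cells, with viability read by CellTiter-Glo in the same plate. Run in parallel with EC50 and ISRE:NFκB ratio determination for cross-species confirmation.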

Series [1] deals with IRF-Lucia luciferase reporter (ISRE) in THP1-Dual cells. Nature of the series: THP1-Dual IRF-Lucia luciferase reporter assay (ISRE activation). It is filed as cell-based, human. The conditions noted are these: Homo sapiens, THP1-Dual, read-out: THP1 IRF EC50. In outline:
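Supernatant luminescence from the ISG54/ISRE-driven Lucia reporter was measured after 24 h exposure to 10 μM compound (LPS 313 ng/mL in control wells).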

Series [2] is described as follows: THP1-Dual cytotoxicity (Cell Titer Glo, ATP). The format is cell-based, human. The conditions noted are these: human, THP1-Dual cells, read-out: Thp1 cytotox CC50. Summed up:
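CC50, the concentration killing half the cells, was derived from ATP-dependent CellTiter-Glo luminescence. Cells were THP1-Dual (human) and compound was tested as an 8-point dose-response series, with viability read in the same plate.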
On the technique in general: Cellular ATP, detected with luciferase, serves as a proxy for viable cell number.

In series [3] the test system is NF-κB-SEAP reporter in THP1-Dual cells. Nature of the series: THP1-Dual NF-κB-SEAP reporter counterscreen. It is filed as cell-based, human. The following applies: Homo sapiens, THP1-Dual, read-out: THP1 NFkB EC50. Here is the method: THP1 Dual (InvivoGen) cell suspensions were cultured in RPMI 1640 (Hyclone, Logan, Utah) supplemented with 10% fetal bovine serum (Hyclone), 100 U/mL Normocin (Invivogen), and 50 U/mL PenStrep (Gibco, Dublin, Ireland) between a density of 7·10^5-2·10^6 cells/mL. Every other passage, media was supplemented with 5 U/mL Blasticidin and 100 U/mL Zeocin to maintain the expression constructs. White, flat-bottom 384-well plates (Greiner, Kremsmunster, Austria, 781080) were seeded with 2.5·10^4 cells/well in a total of 50 μL media containing 5 ng/mL phorbolmyristic acid (PMA) using a Matrix WellMate (Thermo Scientific) dispenser. After 48 hours of incubation at 37° C., media was removed using a BioTek ELx405 CW plate washer set to aspirate and wash each well three times with 65 μL 1×PBS. Plates were reloaded with 50 μL media without PMA and treatments added. Lipopolysaccharide in dimethylsulfoxide (DMSO) was transferred to control wells using a HP D300 microdispenser to a final concentration of 313 ng/mL. Compounds from chemical library plates were copied using a Sciclone (Caliper LifeSciences) mounted with a 384-pin transfer tool to obtain a final concentration of 10 μM. After incubation with treatments for 24 hours, 10 μL of supernatant media from each well was transferred into a white, flat-bottom 384-well plate for luminescence readout and a black-walled, clear flat-bottom 384-well plate for absorbance readout.
Specifically, to enable screening of novel chemical entities (NCEs) in a larger screening effort, a robust high-throughput cell-based assay system for primary hit identification of ISRE activators based on the above-mentioned target validation was desired. Human ISRE activity was verified using a THP-1 monocyte line containing the NF-κB-SEAP and IRF-Lucia luciferase dual reporter (THP1-Dual; Invivogen) that features two reporter genes, SEAP (secreted embryonic alkaline phosphatase) and Lucia luciferase, thereby enabling the simultaneous study of the NF-κB and IRF signalling pathways. The Lucia luciferase reporter is under the control of an ISG54 (interferon-stimulated gene) minimal promoter in conjunction with five IFN-stimulated response elements. The SEAP gene is driven by an IFN-β minimal promoter fused to five copies of the NF-κB consensus transcriptional response element and three copies of the c-Rel binding site. Both reporter proteins are readily measurable in the cell culture supernatant when using QUANTI-LUC™ and QUANTI-Blue SEAP detection reagents.
Using the experimental design and data analysis outlined above, optimized assay conditions were obtained. The responsiveness of the human THP-1 Dual cell line was evaluated in an array of assay conditions to obtain sensitive and reproducible results for the activation of IRF and NF-κB reporters. An optimal plating density and differentiation protocol for these cells was established in a 384-well format. All transfer steps are fully automated using high throughput robotic equipment. Briefly, cells are seeded in differentiation medium using a Matrix WellMate fitted with the WellMate Stacker (Thermo Scientific) and incubated at 37° C. with 5% CO2 for 48 h. Following differentiation, cells are washed using a BioTek ELx405 Select CW plate washer and growth medium added with the Matrix WellMate. Programmed control treatments are added to wells using a D300 digital dispenser fitted with T8+ dispense heads (Hewlett Packard) designed to dispense nanoliter quantities of material. Compounds from library plates are added using a pin tool fitted to a Sciclone ALH 3000 Workstation (Caliper Life Sciences) programmed with Maestro v4.4. After treatment, plates are returned to incubators for 24 hours. To measure reporter expression, supernatant is collected using the Sciclone and dispensed into 2 plates: 1) a white 384-well assay plate for Lucia luminescence measurements and 2) a clear-bottom black 384-well assay plate for SEAP absorbance measurements. […]
A general note: The purpose of a counterscreen is to sort out artefacts and off-target activity.

Setting [4] is: Human Reporter Cell Line, 8-point dose response.

Read-outs that look alike come from different tables or passages of the source. Bounds are passed on as bounds.

With `O=C(Nc1ccc(N2CCN(C(=O)c3cccs3)CC2)cc1)c1ccc(-c2ccccc2)cc1` [NA-19], the half-maximal cytotoxic concentration (CC50) (in general, the concentration giving 50% cytotoxicity) in the series “J774-Dual cytotoxicity” (Mouse Reporter Cell Line) was above 25 µM; in series [2] (Human Reporter Cell Line) it was 8.49 µM. For the same molecule, the EC50 (in general, the midpoint of the concentration-response curve) in series [1] (setting [4]) amounted to 1.02 µM; in series [3] (setting [4]), 1.47 µM.

Regarding `O=C(Nc1ccc(N2CCN(C(=O)c3cccs3)CC2)cc1)c1ccc(OCc2ccc(OC(F)(F)F)cc2)cc1` [NA-34], the cytotoxic concentration (CC50) (in the series “J774-Dual cytotoxicity” (Mouse Reporter Cell Line); in series [2] (Human Reporter Cell Line)) was above 25 µM in each case. For the same molecule, the EC50 worked out at 4.42 µM in series [1] (setting [4]) and 6.38 µM in series [3] (setting [4]).

With `CCOc1cccc(COc2ccc(C(=O)Nc3ccc(N4CCN(C(=O)c5cccs5)CC4)cc3)cn2)c1` [NA-71], the CC50 (in the series “J774-Dual cytotoxicity” (Mouse Reporter Cell Line); in series [2] (Human Reporter Cell Line)) was above 10 µM each time. For the same molecule, the EC50 amounted to 3.33 µM in series [1] (setting [4]) and 6.57 µM in series [3] (setting [4]).

For `COC(=O)Cc1ccc(NC(=O)c2ccc(NC(=O)c3ccco3)cc2)cc1` [NC-3], the cytotoxic concentration (CC50) (in the series “J774-Dual cytotoxicity” (Mouse Reporter Cell Line); in series [2] (Human Reporter Cell Line)) was above 25 µM in each case. Besides, the 50% effective concentration (EC50) in series [1] (setting [4]) is 4.13 µM; in series [3] (setting [4]), around 6.13 µM.

On to `Cc1c(C(=O)Nc2ccc3oc(-c4cccnc4)nc3c2)cccc1[N+](=O)[O-]` [ND-42], for which the half-maximal cytotoxic concentration (CC50) (in the series “J774-Dual cytotoxicity” (Mouse Reporter Cell Line J774); in series [2] (Human Reporter Cell Line THP1)) was above 25 µM each time. In addition, the EC50 in series [1] (Human Reporter Cell Line THP1) was around 0.00225 µM; in series [3] (Human Reporter Cell Line THP1), around 15.6 µM.

On to `Cc1ccc(-c2nc3ccccc3s2)cc1NC(=O)c1cc(I)ccc1Cl` [ND-62], for which the 50% cytotoxic concentration (CC50) (in the series “J774-Dual cytotoxicity” (Mouse Reporter Cell Line J774); in series [2] (Human Reporter Cell Line THP1)) was above 25 µM in each case. In addition, the concentration for a half-maximal effect (EC50) in series [3] (Human Reporter Cell Line THP1) was around 9.34 µM.

As to `Cc1ccc(C(=O)Nc2ccc(O)c(-c3nc4ccccc4s3)c2)cc1[N+](=O)[O-]` [ND-63], the CC50 in “J774-Dual cytotoxicity” (Mouse Reporter Cell Line J774) is above 25 µM; in series [2] (Human Reporter Cell Line THP1) it was 27.4 µM. Also, the EC50 in series [3] (Human Reporter Cell Line THP1) was around 3.2 µM.

`COc1ccc(C(=O)Nc2ccc(O)c(-c3nc4ccccc4s3)c2)cc1[N+](=O)[O-]` [ND-65]: the CC50 (in the series “J774-Dual cytotoxicity” (Mouse Reporter Cell Line J774); in series [2] (Human Reporter Cell Line THP1)) was above 25 µM in each case. For the same molecule, the EC50 in series [1] (Human Reporter Cell Line THP1) was 5.39 µM; in series [3] (Human Reporter Cell Line THP1) it was 12 µM.

Take `COc1ccc(-c2nc3ccccc3s2)cc1NC(=O)c1ccc([N+](=O)[O-])cc1Cl` [ND-67]: the results for the CC50 (in “J774-Dual cytotoxicity” (Mouse Reporter Cell Line J774); in series [2] (Human Reporter Cell Line THP1)) were above 25 µM and 8.87 µM, respectively. Moreover, the EC50 was 0.401 µM in series [1] (Human Reporter Cell Line THP1) and around 12.3 µM in series [3] (Human Reporter Cell Line THP1).

For `COc1ccc(C(=O)Nc2cc(-c3nc4ccccc4s3)ccc2C)cc1Br` [ND-68], the CC50 (in the series “J774-Dual cytotoxicity” (Mouse Reporter Cell Line J774); in series [2] (Human Reporter Cell Line THP1)) was above 25 µM throughout. In addition, the concentration giving a half-maximal response (EC50) in series [3] (Human Reporter Cell Line THP1) was around 9.75 µM.

Take `Cc1ccc(C(=O)Nc2cc(-c3nc4ccccc4s3)ccc2C)cc1Cl` [ND-70]: the CC50 in the series “J774-Dual cytotoxicity” (Mouse Reporter Cell Line J774) is above 25 µM; in series [2] (Human Reporter Cell Line THP1), 17.4 µM. Besides, the values for the EC50 in series [1] (Human Reporter Cell Line THP1) and in series [3] (Human Reporter Cell Line THP1) were 4.76 µM and around 4.33 µM, respectively.

With `Cc1cc2nc(-c3ccc(C)c(NC(=O)c4ccc([N+](=O)[O-])cc4)c3)oc2cc1C` [ND-71], the 50% cytotoxic concentration (CC50) (in the series “J774-Dual cytotoxicity” (Mouse Reporter Cell Line J774); in series [2] (Human Reporter Cell Line THP1)) was above 25 µM in each case. In addition, the figures for the concentration giving a half-maximal response (EC50) in series [1] (Human Reporter Cell Line THP1) and in series [3] (Human Reporter Cell Line THP1) were 8.49 µM and 6.94 µM, respectively.

Take `Oc1ccc(-c2nc3ccc(O)cc3o2)cc1` [ND-74]: the CC50 (in “J774-Dual cytotoxicity” (Mouse Reporter Cell Line J774); in series [2] (Human Reporter Cell Line THP1)) was above 25 µM in each case. The EC50 in series [3] (Human Reporter Cell Line THP1) was 32.5 µM.

Consider `Cc1ccc(-c2nc3ccccc3s2)cc1NC(=O)c1ccc(C(F)(F)F)c([N+](=O)[O-])c1` [ND-79], for which the cytotoxic concentration (CC50) (in the series “J774-Dual cytotoxicity” (Mouse Reporter Cell Line J774); in series [2] (Human Reporter Cell Line THP1)) was above 25 µM in each case. In series [3] (Human Reporter Cell Line THP1), the EC50 was around 11.3 µM.

On to `COc1ccc2oc(-c3ccc(C)c(NC(=O)c4ccc(OC)c([N+](=O)[O-])c4)c3)nc2c1` [ND-86], for which the 50% cytotoxic concentration (CC50) (in “J774-Dual cytotoxicity” (Mouse Reporter Cell Line J774); in series [2] (Human Reporter Cell Line THP1)) was above 25 µM throughout. Besides, the half-maximal effective concentration (EC50) in series [3] (Human Reporter Cell Line THP1) is around 3.85 µM.

Regarding `COc1ccc(C(=O)Nc2cc(-c3nc4ccccc4s3)ccc2Cl)cc1[N+](=O)[O-]` [ND-89], the CC50 (in “J774-Dual cytotoxicity” (Mouse Reporter Cell Line J774); in series [2] (Human Reporter Cell Line THP1)) was above 25 µM throughout. Besides, the EC50 in series [1] (Human Reporter Cell Line THP1) is around 0.496 µM; in series [3] (Human Reporter Cell Line THP1), 10.6 µM.

Consider `COc1ccc(C(=O)Nc2cc(-c3nc4cc(OCCCN5CCCC5)ccc4o3)ccc2C)cc1[N+](=O)[O-]` [ND-92], for which the cytotoxic concentration (CC50) (in “J774-Dual cytotoxicity” (Mouse Reporter Cell Line J774); in series [2] (Human Reporter Cell Line THP1)) was above 25 µM each time. Also, in series [3] (Human Reporter Cell Line THP1), the EC50 is around 2.33 µM.

For the molecule `COc1c(Cl)cc(C(=O)Nc2cc(-c3nc4cc(Cl)ccc4o3)ccc2C)cc1Cl` [ND-101], the 50% cytotoxic concentration (CC50) (in “J774-Dual cytotoxicity” (Mouse Reporter Cell Line J774); in series [2] (Human Reporter Cell Line THP1)) was above 25 µM throughout. Besides, the EC50 in series [3] (Human Reporter Cell Line THP1) is around 3.75 µM.

Consider `Cc1cc2nc(-c3ccc(C)c(NC(=O)c4ccc([N+](=O)[O-])cc4Cl)c3)oc2cc1C` [ND-102], for which the values for the EC50 in series [1] (Human Reporter Cell Line THP1) and in series [3] (Human Reporter Cell Line THP1) were 24.7 µM and 57.9 µM, respectively.

For `Cc1cc2nc(-c3ccc(C)c(NC(=O)c4ccc(OCc5ccccc5)cc4)c3)oc2cc1C` [ND-105], the CC50 (in “J774-Dual cytotoxicity” (Mouse Reporter Cell Line J774); in series [2] (Human Reporter Cell Line THP1)) was above 10 µM throughout. Further, the EC50 in series [3] (Human Reporter Cell Line THP1) turned out to be 2.19 µM.
